Type in all cases: cell-based
One assay deals with Mouse splenocytes. The experiment in a line: Mouse Splenocyte Assay, cytokine release (HTRF). The settings on record: Splenocyte, 24 hours, mIL6 in supernatant, read-out: Splenocyte IL6 EC50. How it is done: Mouse splenocytes were isolated from fresh mouse spleens. Briefly, spleens were harvested from female balb/c nude mice and transferred to a 70 μm cell strainer. The cell strainer was subsequently placed in a 6-well suspension culture plate containing 5 mL media (RPMI+10% FBS). The spleens were crushed against the cell strainer using the flat end of a 10 mL syringe plunger and the cell strainer was washed with 5 mL media. The cell strainer was discarded, and the cell suspension was washed in PBS. Red blood cells were removed using PharmaLyse (BD). The cell suspension was washed in media, resuspended in CryoStor® CS10 ([…]) and frozen. On assay day, mouse splenocytes were thawed in warm assay buffer (RPMI+10% FBS). Cells were spun down and resuspended in fresh assay buffer. 100,000 cells were added to each well of plates containing test compound. For test compound preparation, each compound was initially diluted to 1 mM in DMSO and further diluted in assay buffer. A 4-fold 11-point titration starting from 15 μM was performed. Cells were incubated with test compound at 37° C.+5% CO2 for 24 hours before supernatant was harvested. Murine IL6 (mIL6) and murine TNFα (mTNFα) were quantified in the supernatant using homogeneous time resolved fluorescence (Cisbio).
(§1) Each assay included a positive control compound (referred to herein as “benchmark,” see, e.g., TABLE 3 below, and taken from International Patent Publication No. WO2017/072662, structure shown below) and a negative control (growth medium). […] The structure of the benchmark compound from International Patent Publication No. WO 2017/072662 is as follows: […]

Another assay concerns the target T1, mTLR7 (Mus musculus, UniProt P58681).
T1 construct: host or cells: HEK-Blue mTLR7 reporter cells (HEK293-derived, own knowledge)
T1 sequence (P58681 27-1050): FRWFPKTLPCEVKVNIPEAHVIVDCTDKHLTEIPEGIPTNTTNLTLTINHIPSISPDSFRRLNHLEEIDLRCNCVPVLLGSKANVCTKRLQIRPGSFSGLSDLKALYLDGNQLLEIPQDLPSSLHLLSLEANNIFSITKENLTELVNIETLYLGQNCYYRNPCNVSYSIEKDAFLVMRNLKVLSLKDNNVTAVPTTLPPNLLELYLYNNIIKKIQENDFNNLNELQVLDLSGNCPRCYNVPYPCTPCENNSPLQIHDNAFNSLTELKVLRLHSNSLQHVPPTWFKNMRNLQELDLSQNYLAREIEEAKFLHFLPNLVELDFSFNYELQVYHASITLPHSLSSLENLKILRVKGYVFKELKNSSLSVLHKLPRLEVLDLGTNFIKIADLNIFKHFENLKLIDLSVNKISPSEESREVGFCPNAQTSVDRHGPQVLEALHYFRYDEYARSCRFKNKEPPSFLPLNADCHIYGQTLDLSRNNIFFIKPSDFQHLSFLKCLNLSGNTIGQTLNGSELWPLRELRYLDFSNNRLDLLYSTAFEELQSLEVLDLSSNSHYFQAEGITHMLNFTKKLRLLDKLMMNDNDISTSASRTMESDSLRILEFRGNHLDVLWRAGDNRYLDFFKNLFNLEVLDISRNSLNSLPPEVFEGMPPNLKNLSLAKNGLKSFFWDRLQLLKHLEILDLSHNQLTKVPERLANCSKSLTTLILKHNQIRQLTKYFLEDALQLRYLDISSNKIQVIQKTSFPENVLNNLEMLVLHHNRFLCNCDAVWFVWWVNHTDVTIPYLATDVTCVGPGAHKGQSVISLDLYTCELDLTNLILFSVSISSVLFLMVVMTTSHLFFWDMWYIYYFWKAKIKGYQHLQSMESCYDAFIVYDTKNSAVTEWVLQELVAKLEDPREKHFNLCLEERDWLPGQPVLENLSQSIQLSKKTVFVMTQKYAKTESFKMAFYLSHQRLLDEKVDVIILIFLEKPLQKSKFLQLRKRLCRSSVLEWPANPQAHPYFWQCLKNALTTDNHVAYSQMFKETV
The experiment in a line: Reporter Gene Assay (RGA), HEK-Blue mTLR7 reporter cells, SEAP readout. The settings on record: overnight incubation, SEAP absorbance 620 nm. How it is done: (§2) 1.5×10^4 HEK-Blue™ hTLR7 (Invivogen, San Diego, CA) or HEK-Blue™ mTLR7 (Invivogen, San Diego, CA) reporter cells were treated with a titration series of test compound (4-fold titration from […], 11 points). Compounds were initially diluted to 1 mM in DMSO and subsequently serial-diluted in assay media (HEK-Blue™ Detection; Invivogen, San Diego, CA). Cells with test compound were incubated overnight at 37° C.+5% CO2, and the amount of secreted embryonic alkaline phosphatase (SEAP) was determined by measuring absorbance (620 nm) using a Synergy™ H1 microplate reader.
as §1

Assay [1] relates to Human peripheral blood mononuclear cells (PBMCs). The experiment in a line: Human PBMC Assay, cytokine release (HTRF). As to conditions: PBMC, 24 hours.
Description: Human peripheral blood mononuclear cells (PBMCs) were isolated from fresh Leukopak using magnetic separation. Briefly, erythrocytes and granulocytes were magnetically labeled with Erythrocyte Depletion MicroBeads (Miltenyi Biotec) and Granulocyte Depletion MicroBeads (Miltenyi Biotec), respectively. The cell suspension was loaded onto a Multi-24 Column Block (Miltenyi Biotec) and placed in the magnetic field of a MultiMACS Cell24 Separator Plus (Miltenyi Biotec). The unlabelled PBMCs were collected in the run through. PBMCs were resuspended in CryoStor® CS10 ([…]) and frozen. On the day before the assay, PBMCs were thawed in warm assay buffer (RPMI+10% FBS) and resuspended in assay buffer+10 ng/ml hIL3 (R&D Systems). Cells were rested at 37° C.+5% CO2 overnight. The following day, cells were spun down and resuspended in fresh assay buffer. 300,000 cells were added to each well of plates containing test compound. For test compound preparation, each compound was initially diluted to 1 mM in DMSO and further diluted in assay buffer. A 4-fold 11-point titration starting from 15 μM was performed. Cells were incubated with test compound at 37° C.+5% CO2 for 24 hours before supernatant was harvested. Human interleukin 6 (hIL6), human tumor necrosis factor alpha (hTNFα), and human interferon alpha (hIFNα) were quantified in the supernatant using homogeneous time resolved fluorescence (Cisbio).
as §1

A further assay concerns the target T2, hTLR7 (Homo sapiens, UniProt Q9NYK1).
T2 construct: host or cells: HEK-Blue hTLR7 reporter cells (HEK293-derived, own knowledge)
T2 sequence (Q9NYK1 27-1049): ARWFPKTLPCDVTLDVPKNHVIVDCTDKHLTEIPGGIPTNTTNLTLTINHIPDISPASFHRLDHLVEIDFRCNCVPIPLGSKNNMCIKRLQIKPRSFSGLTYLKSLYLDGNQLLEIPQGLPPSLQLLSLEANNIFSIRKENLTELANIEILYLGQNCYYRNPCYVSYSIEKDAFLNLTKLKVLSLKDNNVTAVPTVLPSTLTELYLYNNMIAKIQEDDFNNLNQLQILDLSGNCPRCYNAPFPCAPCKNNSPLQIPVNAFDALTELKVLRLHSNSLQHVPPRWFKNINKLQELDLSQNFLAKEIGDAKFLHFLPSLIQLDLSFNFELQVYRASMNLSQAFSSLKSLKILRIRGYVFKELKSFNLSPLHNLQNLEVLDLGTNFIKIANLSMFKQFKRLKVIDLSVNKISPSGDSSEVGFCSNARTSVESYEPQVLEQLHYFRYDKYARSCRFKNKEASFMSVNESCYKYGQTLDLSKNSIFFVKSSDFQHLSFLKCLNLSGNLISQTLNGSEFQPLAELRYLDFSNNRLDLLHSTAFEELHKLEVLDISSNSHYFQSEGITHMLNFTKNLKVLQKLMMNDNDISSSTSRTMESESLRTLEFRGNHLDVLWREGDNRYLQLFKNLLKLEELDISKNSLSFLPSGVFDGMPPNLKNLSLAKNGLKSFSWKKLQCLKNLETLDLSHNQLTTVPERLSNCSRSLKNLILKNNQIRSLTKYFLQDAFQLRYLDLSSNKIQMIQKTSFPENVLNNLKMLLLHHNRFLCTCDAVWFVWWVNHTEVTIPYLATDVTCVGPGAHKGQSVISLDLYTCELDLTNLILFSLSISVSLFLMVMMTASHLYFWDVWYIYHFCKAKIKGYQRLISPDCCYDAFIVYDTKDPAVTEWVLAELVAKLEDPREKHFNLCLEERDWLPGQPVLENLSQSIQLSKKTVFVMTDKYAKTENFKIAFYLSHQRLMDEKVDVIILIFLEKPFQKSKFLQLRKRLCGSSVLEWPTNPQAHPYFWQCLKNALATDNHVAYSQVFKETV
The assay can be described thus: Reporter Gene Assay (RGA), HEK-Blue hTLR7 reporter cells, SEAP readout. As to conditions: overnight incubation, SEAP absorbance 620 nm. The protocol:
as §2, §1

Setting [2] is: hIFNα in supernatant, EC50 values approximated and divided into groups, read-out: PBMC IFNa EC50.
Where [3] appears, read: hIL6 in supernatant, read-out: PBMC IL6 EC50.

SMILES strings stand for the structures. Read-outs that look alike come from different tables or passages of the source.

On to `CCOc1nc(N)c2nc(O)n(Cc3ccc(CNCc4ccc(CN)cc4)cc3OC)c2n1` [Compound 105, 6-amino-9-(4-(((4-(aminomethyl)benzyl)amino)methyl)-2-methoxybenzyl)-2-ethoxy-9H-purin-8-ol], for which the EC50 is 0.0262 µM in the assay on Mouse splenocytes; 0.0024 µM at mTLR7; < 0.0001 µM in assay [1] (setting [2]); 0.394 µM in assay [1] (setting [3]); 0.007 µM on hTLR7.

Turning to `CCOc1nc(N)c2nc(O)n(Cc3ccc(CNCCCCN)cc3OC)c2n1` [Compound 106, 6-amino-9-(4-(((4-aminobutyl)amino)methyl)-2-methoxybenzyl)-2-ethoxy-9H-purin-8-ol], the EC50 is 2.06 µM with Mouse splenocytes; 0.0941 µM on mTLR7; 0.001 to 0.01 µM in assay [1] (setting [2]); 0.688 µM in assay [1] (setting [3]); 0.348 µM at hTLR7.

On to `CCOc1nc(N)c2nc(O)n(Cc3ccc(CNCc4ccccc4)cc3OC)c2n1` [Compound 107, 6-amino-9-(4-((benzylamino)methyl)-2-methoxybenzyl)-2-ethoxy-9H-purin-8-ol], for which the EC50 is 0.0333 µM in the assay with Mouse splenocytes; 0.0003 µM at mTLR7; 0.0001 to 0.001 µM in assay [1] (setting [2]); 2.72 µM in assay [1] (setting [3]); 0.013 µM on hTLR7.

On to `CCOc1nc(N)c2nc(O)n(Cc3ccc(CNC4CCC4)cc3OC)c2n1` [Compound 108, 6-amino-9-(4-((cyclobutylamino)methyl)-2-methoxybenzyl)-2-ethoxy-9H-purin-8-ol], for which the EC50 in the assay with Mouse splenocytes is 0.0719 µM; on mTLR7, 0.005 µM; in assay [1] (setting [2]), < 0.0001 µM; in assay [1] (setting [3]), 0.564 µM; at hTLR7, 0.006 µM.

Turning to `CCOc1nc(N)c2nc(O)n(Cc3ccc(CNC4CC(F)(F)C4)cc3OC)c2n1` [Compound 109, 6-amino-9-(4-(((3,3-difluorocyclobutyl)amino)methyl)-2-methoxybenzyl)-2-ethoxy-9H-purin-8-ol], the EC50 with Mouse splenocytes was 0.167 µM; on mTLR7 it was 0.0131 µM; in assay [1] (setting [2]), 0.001 to 0.01 µM; in assay [1] (setting [3]) it was 0.456 µM; on hTLR7, 0.056 µM.

On to `CCOc1nc(N)c2nc(O)n(Cc3ccc(CN4CCC(N)CC4)cc3OC)c2n1` [Compound 110, 6-amino-9-(4-((4-aminopiperidin-1-yl)methyl)-2-methoxybenzyl)-2-ethoxy-9H-purin-8-ol], for which the EC50 in the assay with Mouse splenocytes was ≥ 1 µM; at mTLR7, 0.184 µM; in assay [1] (setting [2]), 0.001 to 0.01 µM; in assay [1] (setting [3]) it was 0.937 µM; on hTLR7, 0.112 µM.

With `CCOc1nc(N)c2nc(O)n(Cc3ccc(CNCCN)cc3OC)c2n1` [Compound 111, 6-amino-9-(4-(((2-aminoethyl)amino)methyl)-2-methoxybenzyl)-2-ethoxy-9H-purin-8-ol], the concentration for a half-maximal effect (EC50) in the assay with Mouse splenocytes is 0.0208 µM; at mTLR7, 0.0869 µM; in assay [1] (setting [2]), 0.001 to 0.01 µM; in assay [1] (setting [3]), 0.531 µM; at hTLR7, 0.102 µM.

Consider `CCOc1nc(N)c2nc(O)n(Cc3ccc(CN4CCN(CCNC(=O)CC(SC[C@@H](N)C(=O)O)C(=O)O)CC4)cc3OC)c2n1` (stereo partly drawn) [Compound 113, 2-(((S)-2-amino-2-carboxyethyl)thio)-4-((2-(4-(4-((6-amino-2-ethoxy-8-hydroxy-9H-purin-9-yl)methyl)-3-methoxybenzyl)piperazin-1-yl)ethyl)amino)-4-oxobutanoic Acid], for which the EC50 is 1.18 µM in the assay on Mouse splenocytes; 0.662 µM on mTLR7; > 0.01 µM in assay [1] (setting [2]); 1.36 µM in assay [1] (setting [3]); 0.187 µM at hTLR7.

For `CCOc1nc(N)c2nc(O)n(Cc3ccc(CNCCCC[C@H](N)C(=O)O)cc3OC)c2n1` [Compound 114, N^6-(4-((6-amino-2-ethoxy-8-hydroxy-9H-purin-9-yl)methyl)-3-methoxybenzyl)-L-lysine], the EC50 is 0.901 µM in the assay with Mouse splenocytes; 1.52 µM on mTLR7; > 0.01 µM in assay [1] (setting [2]); 1.75 µM in assay [1] (setting [3]); 0.261 µM on hTLR7.

In the case of `CCOc1nc(N)c2nc(O)n(Cc3ccc(CNCCCCCC(=O)O)cc3OC)c2n1` [Compound 115, 6-((4-((6-amino-2-ethoxy-8-hydroxy-9H-purin-9-yl)methyl)-3-methoxybenzyl)-amino)hexanoic Acid], the EC50 in the assay with Mouse splenocytes is 3.24 µM; on mTLR7 it was 1.6 µM; in assay [1] (setting [2]) it was > 0.01 µM; in assay [1] (setting [3]) it was 2.81 µM; at hTLR7 it was 0.277 µM.

For the origin of these results see patent publication US20250170266A1 (ZYMEWORKS BC INC., priority 2022, published 2025).
